Here are results for 17 molecules from PubChem BioAssay (NCI).

Test systems include SK-MEL-2 melanoma; HCT-116 colon; NCI-H522 lung; 786-0 renal; SK-MEL-5 melanoma; HL-60(TB) leukemia; UO-31 renal; U251 CNS; MDA-N; XF 498 CNS; M19-MEL melanoma.
Common to all, as to experiment: growth of human tumour cells (NCI), 48 h

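Cultured in 96-well plates, cells were exposed to test compound for 48 hours across five concentrations. GI50 is the concentration that inhibits growth by half. Definition used: TGI = concentration required for complete inhibition of growth.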

On to `C[C@]12CCC(=O)C=C1CC[C@@H]1[C@@H]2[C@@H](O)C[C@@]2(C)[C@H]1CC[C@]2(O)C(=O)COC(=O)C1CCCC1`, for which the TGI with SK-MEL-2 melanoma, in the experiment on HCT-116 colon, in the experiment on NCI-H522 lung, in the experiment with 786-0 renal, in the experiment on SK-MEL-5 melanoma and with HL-60(TB) leukemia was more than 100 µM throughout. Besides, the TGI in the experiment with UO-31 renal, in the experiment on U251 CNS and in the experiment with MDA-N was more than 100 µM throughout.
For the molecule `O=S(O)c1cc(Cl)cc(Cl)c1OCc1ccccc1`, the TGI in the experiment with XF 498 CNS, in the experiment on SK-MEL-2 melanoma, with HCT-116 colon, in the experiment with NCI-H522 lung, in the experiment on M19-MEL melanoma and in the experiment with HL-60(TB) leukemia was more than 100 µM in each case. Also, the TGI in the experiment on UO-31 renal and in the experiment on U251 CNS was more than 100 µM throughout.
Regarding `Cc1ccc(SSCCCCCS(=O)O)cc1`, the TGI is 49.6 µM in the experiment with XF 498 CNS; 59.2 µM with SK-MEL-2 melanoma; 28.4 µM in the experiment on HCT-116 colon; 27.9 µM in the experiment with NCI-H522 lung; more than 100 µM in the experiment with M19-MEL melanoma; 55.8 µM in the experiment on HL-60(TB) leukemia. The TGI was 67.2 µM with UO-31 renal and 25.7 µM in the experiment with U251 CNS.
As for `CC(=O)C1=C(O)CCC1=O`, the TGI with SK-MEL-2 melanoma, in the experiment on HCT-116 colon, in the experiment with NCI-H522 lung, in the experiment on SK-MEL-5 melanoma, in the experiment with HL-60(TB) leukemia and in the experiment with UO-31 renal was more than 100 µM each time. In the experiment on U251 CNS, this molecule returned a TGI of more than 100 µM.
For `COc1ccc2nc3ccccc3c(NCc3ccc(C)cc3)c2c1`, the GI50 with SK-MEL-2 melanoma is 1.85 µM; with HCT-116 colon, 0.848 µM; in the experiment on NCI-H522 lung, 1.94 µM; in the experiment on SK-MEL-5 melanoma it was 1.77 µM; in the experiment on HL-60(TB) leukemia, 2.03 µM; in the experiment on UO-31 renal, 1.28 µM. For the same molecule, the GI50 in the experiment with U251 CNS is 1.84 µM. The TGI turned out to be 3.68 µM in the experiment with SK-MEL-2 melanoma; 6.24 µM with HCT-116 colon; 4.67 µM with NCI-H522 lung; 3.19 µM in the experiment with SK-MEL-5 melanoma; 4.58 µM in the experiment with HL-60(TB) leukemia; 2.65 µM in the experiment on UO-31 renal. For the same molecule, the TGI in the experiment on U251 CNS amounted to 3.69 µM.
For the molecule `Clc1ccc(-c2nnc(-c3c(Cl)c(Cl)c(Cl)c(Cl)c3-c3nc4ccccc4[nH]3)o2)cc1`, the TGI in the experiment on SK-MEL-2 melanoma, with HCT-116 colon, in the experiment with NCI-H522 lung, in the experiment with 786-0 renal, in the experiment with SK-MEL-5 melanoma and in the experiment on HL-60(TB) leukemia was more than 100 µM in each case. For the same molecule, the TGI in the experiment with UO-31 renal and in the experiment on MDA-N was more than 100 µM each time.
`COc1cc2c(cc1OC)-c1cc3ccc(OC)c(OC)c3c[n+]1CC2`: the TGI in the experiment on SK-MEL-2 melanoma, in the experiment on HCT-116 colon, with NCI-H522 lung, in the experiment on 786-0 renal, in the experiment with SK-MEL-5 melanoma and in the experiment with HL-60(TB) leukemia was more than 100 µM throughout. Moreover, the TGI in the experiment on UO-31 renal, with U251 CNS and in the experiment with MDA-N was more than 100 µM in each case.
For `C[N+](C)(CCO)CCN1c2ccccc2Sc2ccccc21`, the TGI with SK-MEL-2 melanoma, with HCT-116 colon, in the experiment on NCI-H522 lung, with SK-MEL-5 melanoma, in the experiment on HL-60(TB) leukemia and in the experiment with UO-31 renal was more than 10 µM in each case. The TGI in the experiment on U251 CNS and with MDA-N was more than 10 µM in each case.
Take `Fc1c(F)c(C(F)(F)F)c(F)c(F)c1N/N=C/c1cn(Cc2ccccc2)c2ccccc12`: the TGI with SK-MEL-2 melanoma was determined as 55.7 µM; with HCT-116 colon, 89.5 µM; in the experiment on NCI-H522 lung, 70.1 µM; with 786-0 renal it was 66.8 µM; in the experiment on SK-MEL-5 melanoma it was 36 µM; with HL-60(TB) leukemia it was 52.6 µM. Also, the values for the TGI with UO-31 renal and in the experiment on U251 CNS were 52.9 µM and more than 100 µM, respectively.
With `COc1ccc2c(c1)CC[C@@H]1[C@@H]2CC[C@]2(C)C(=O)/C(=C/c3ccc(O)c(OC)c3)C[C@@H]12`, the TGI with SK-MEL-2 melanoma, with SK-MEL-5 melanoma, with HL-60(TB) leukemia, in the experiment with UO-31 renal, with U251 CNS and with MDA-N was more than 100 µM each time.
In the case of `COc1ccc(C2C(C=O)C(N3CCN(C)CC3)=Nc3nc4ccccc4n32)cc1` (stereo unspecified), the TGI in the experiment with SK-MEL-2 melanoma is 31.2 µM; in the experiment on HCT-116 colon it was 29.8 µM; in the experiment on NCI-H522 lung it was 25.6 µM; in the experiment with 786-0 renal, more than 100 µM; with SK-MEL-5 melanoma it was 31.5 µM; in the experiment with HL-60(TB) leukemia, 18.4 µM. In addition, the TGI in the experiment on UO-31 renal came to 32.4 µM; in the experiment on U251 CNS, 39.3 µM.
In the case of `O=C1C[C@H](CCC(=O)OCc2ccccc2)NC(=O)C[C@H](CCC(=O)OCc2ccccc2)NC(=O)C[C@H](CCC(=O)OCc2ccccc2)N1`, the TGI with SK-MEL-2 melanoma, with HCT-116 colon, in the experiment on NCI-H522 lung, in the experiment with 786-0 renal, in the experiment on SK-MEL-5 melanoma and with UO-31 renal was more than 100 µM in each case. Moreover, the TGI in the experiment with U251 CNS and in the experiment with MDA-N was more than 100 µM each time.
`COc1cc2c(cc1OCCCN1CCN(c3ncnc4ccccc34)CC1)N=CC1CCCN1C2=O` (stereo unspecified): the GI50 in the experiment with SK-MEL-2 melanoma was 0.0646 µM; in the experiment with SK-MEL-5 melanoma, 0.0168 µM; in the experiment on HL-60(TB) leukemia it was 0.0307 µM; with UO-31 renal, 0.0754 µM. In addition, the TGI was determined as 0.512 µM in the experiment on SK-MEL-2 melanoma, 0.0285 µM in the experiment with NCI-H522 lung, 0.0323 µM in the experiment on SK-MEL-5 melanoma and 0.558 µM in the experiment with UO-31 renal.
For the molecule `O=c1/c(=C/c2ccc([N+](=O)[O-])o2)sc2n1[C@@H](c1ccc3c(c1)OCO3)C=C(c1cc(F)c(Cl)cc1Cl)N=2`, the TGI in the experiment with SK-MEL-2 melanoma is 83 µM; with HCT-116 colon, 28 µM; in the experiment on NCI-H522 lung it was 65.6 µM; in the experiment on 786-0 renal, 42.1 µM; with SK-MEL-5 melanoma, 24 µM; with HL-60(TB) leukemia, 45.5 µM. Further, the TGI in the experiment with UO-31 renal was found to be 42.2 µM; in the experiment with U251 CNS, 46.5 µM; in the experiment on MDA-N, 43.3 µM.
With `N#C[S-].[Ce+3].c1cnc2c(c1)ccc1cccnc12.c1cnc2c(c1)ccc1cccnc12.c1cnc2c(c1)ccc1cccnc12`, the GI50 with XF 498 CNS is 3.27 µM; with M19-MEL melanoma it was 0.555 µM. The TGI in the experiment on XF 498 CNS turned out to be 8.95 µM; in the experiment on HCT-116 colon, 5.5 µM; with NCI-H522 lung it was 21.1 µM; with 786-0 renal, 11.1 µM; in the experiment with SK-MEL-5 melanoma, 15.2 µM; in the experiment on M19-MEL melanoma it was 3.31 µM. Further, the results for the TGI with HL-60(TB) leukemia, in the experiment on UO-31 renal and in the experiment on U251 CNS were 48.3 µM, 11.5 µM and 12.6 µM, respectively.
As to `NC(CC(=O)O)(Cc1ccccc1)C(=O)O` (stereo unspecified), the TGI in the experiment with SK-MEL-2 melanoma, with HCT-116 colon, with NCI-H522 lung, with 786-0 renal, with SK-MEL-5 melanoma and with HL-60(TB) leukemia was more than 100 µM each time. The TGI with UO-31 renal, with U251 CNS and in the experiment on MDA-N was more than 100 µM in each case.
On to `Cn1c(=O)c2c(nc(NCCNc3nc4c(c(=O)n(C)c(=O)n4C)n3C)n2C)n(C)c1=O`, for which the TGI in the experiment with SK-MEL-2 melanoma, in the experiment with HCT-116 colon, in the experiment with NCI-H522 lung, in the experiment on 786-0 renal, in the experiment with SK-MEL-5 melanoma and with UO-31 renal was more than 100 µM in each case. For the same molecule, the TGI in the experiment on U251 CNS and in the experiment with MDA-N was more than 100 µM throughout.
